Series [1] has as its system hFas L/BHK-21 (BHK-21 cells in which human Fas L cDNA was transfected). Put plainly: Test for inhibition of Fas L solubilization (sFas L in culture supernatant by sandwich-ELISA). The class given is cell-based. The settings on record: for inhibition at 5 µM: Homo sapiens, BHK-21, 24 h, incubated 24 hours at 37°C, read-out: aFas L secretion inhibition rate (%); for IC50: BHK-21, sFas L secretion inhibition at 5, 2.5, 1.25, 0.625 µM, probit method. The procedure: hFas L/BHK-21 (BHK-21 cells in which human Fas L cDNA was transfected)(3.5 x 10^5) was suspended in 1ml of RPMI 1640 culture medium containing 10% fetal bovine serum, and in 24 wells culture plate (Falcon 3047, Becton Dickenson Co., Ltd.) each test sample adjusted with RPMI 1640 containing 10% fetal bovine serum at the final concentration 5, 2.5, 1.25, and 0.625 µM was incubated under 5% carbon dioxide atmosphere at 37°C for 24 hours, to obtain a culture supernatant.
The concentration of sFas L in the supernatant thus obtained was quantitatively analyzed by the sandwich-ELISA method as shown below.
The concentration of anti Fas L antibody (NOK3)(see preparation 17) was adjusted to 10µg/ml with 0.05M sodium carbonate-sodium hydrogen carbonate buffer solution (pH 9.6), and each 50µl thereof was poured in each well of a 96-wells microplate (Immunolon 2, Dinatech Co., Ltd.) and left it overnight at 4°C to make the solid phase. Each well was washed twice with 300 µl of a washing solution consisting of a physiological saline solution adjusted at pH 7.4 with a phosphate buffer solution, containing 0.05% of Tween 20 (polyoxyethylene sorbitan monolaurate)(abbreviated as T-PBS), and then to it was added 300µl of PBS (pH 7.4) containing bovine serum albumin (abbreviated as BSA, Wako Chemical Co., Ltd), and it was left for 2 hours at 37°C to remove the supernatant.
Then, the culture supernatant (50µl) containing a test sample were added to each well, and incubated for one hour at room temperature. After incubation, each well was washed twice with 300µl of T-PBS (pH7.4).
The concentration of anti Fas L antibody (NOK1) labeled with biotin (see preparation 18) was adjusted to 5µg/ml by diluting with PBS (pH 7.4) containing 1% BSA, and 50µl thereof was added to the solution prepared above. The solution was reacted for one hour at room temperature, and washed twice with 300µl of T-PBS (pH 7.4).
And then, streptoavidin-peroxidase (Amasham Lab.) was diluted 1000 times with PBS (pH 7.4) containing 1% of BSA, and 50µl thereof was added to it. The solution was incubated for 30 minutes at room temparature and was washed twice with 300µ of T-PBS (pH 7.4).
Further, 100µl of 0.15M citric acid-sodium phosphate buffer solution (pH 5.0) containing hydrogen peroxide and o-phenylenediamine (former concentration:0.015 w/v%, latter concentration:0.2mg/ml) was added to each well and incubated for 10 minutes at room temperature.
After incubation, 50µl of 2 N sulfuric acid was added to each well to quench the reaction, and the absorbance at 490 nm was measured by Softmax (Molecular Device Co., Ltd.)
On the other hand, by measuring the absorbance of the sFas L solution of which the concentration was known, as a sample instead of the culture supernatant, the calibration curve was detected based on 4-logistic parameter analysis, and based on it the concentration (X) of sFas L in the culture supernatant was calculated.
As a control, by using the concentration (A) of sFas L in the culture supernatant in case that the test sample was not added, based on the concentration (X) of sFas L in the culture supernatant in case that the sample was added, sFas secretion inhibition rate (%) at 5µM was calculated by using the following formula sFas L secretion inhibition rate (%) = (1-X/A) x 100 [formula]

Series [2] deals with GVHD induced mouse. Nature of the series: Recovery test of GVHD induced mouse. The class given is in vivo, CBF1 mice. The settings on record: 2mg / mouse / day subcutaneously every day for 2 weeks. The protocol: CBF1 mice (F1 mice of BALB/c and C57BL/6) were injected with splenocytes (5x10^7) of C57BL/6 mouse, and a week later were again injected with splenocytes 5x10^7 to induce GVHD into a mouse.
A test sample was suspended in 0.5% CMC solution (test sample 10mg vs the CMC solution 1ml), 2mg of the test sample / mouse / day was subcutaneously administered every day for 2 weeks beginning from injection of splenocytes to the above GVHD induced mice, and this group was compared with the GVHD induced group in which any test sample was not administered (no drug administered group) and the GVHD non-induced group (non-treated group).
The body weight of mice (g) was measured every week a week later after the first injection of splenocytes, for 6 weeks, and the total IgE amount (ng/ml) was measured every week a week later after the first injection of splenocytes, for 9 weeks, and the degree of GVHD was evaluated by change of day.

Series [3] concerns GVHD induced mouse. Nature of the series: Prevention of the mortality of GVHD induced mouse. As to conditions: splenocytes 1x10^8; after the death of all mice of the drug non-administered group; 3 weeks observation. The class given is in vivo, CBF1 mouse. The protocol: GVHD was introduced into CBF1 mouse in the same manner as in Test example 2, except for the numbers of the injected splenocytes, 1x10^8, and the test sample administered group was compared with the drug non-administered group and the non-treated group.
The effect of test samples was evaluated by the mortality of mouse for 3 weeks after the first introduction of the splenocytes.

A short description of series [4]: Toxicity after oral administration (mortality). The class given is in vivo. As to conditions: 3,000mg/kg:body weight, orally administered. The protocol: And a compound of the generic formula (I) or its pharmaceutically acceptable salt was low in toxicity. For example, when compound 4a ( 3,000mg/kg:body weight) was orally administered, the mortality was not found. Therefore, a compound of the generic formula (I) or its pharmaceutically acceptable salt is useful for preventing and treating the diseases in which apoptosis caused by binding the solubilized Fas L with Fas is considered to participate, for example, fulminant hepatitis, GVHD, AIDS, autoimmune diseases, etc.

Consider `CNC(=O)[C@H](Cc1ccc(OC)cc1)NC(=O)[C@@H](CC(=O)NO)CC(C)C` [Test sample A, [4-(N-hydroxyamino)-2(R)-isobutylsuccinyl]-L-O-methyltyrosine-N-methylamide], for which the inhibition (commonly the drop in the measured response relative to a control, in per cent) at 5 µM in series [1] amounted to 47%.

With `CNC(=O)[C@H](Cc1ccccc1)NC(=O)[C@H](CC(C)C)[C@H](CSc1ccccc1)C(=O)NO` [Test sample B, [4-(N-hydroxyamino)-2(R)-isobutyl-3(S)-phenylthiomethylsuccinyl]-L-phenylalanine-N-methylamide], in series [1], the IC50 (usually the concentration at which inhibition is half-maximal) is 2.2 µM and the inhibition at 5 µM is greater than 70%.

Regarding `CNC(=O)[C@H](Cc1ccc(OC)cc1)NC(=O)[C@H](CC(C)C)[C@H](C)C(=O)NO` [Test sample C, [4-(N-hydroxyamino)-2(R)-isobutyl-3(S)-methylsuccinyl]-L-O-methyltyrosine-N-methylamide], in series [1], the IC50 was found to be 1.5 µM and the inhibition at 5 µM was greater than 70%.

Consider `CNC(=O)[C@H](Cc1ccccc1)NC(=O)[C@H](CC(C)C)[C@H](CSc1cccs1)C(=O)NO` [Test sample D, [4-(N-hydroxyamino)-2(R)-isobutyl-3(S)-(2-thienylthiomethyl)succinyl]-L-phenylalanine-N-methylamide], for which, in series [1], it took 1.6 µM to reach half-maximal inhibition (IC50) and the inhibition at 5 µM was greater than 70%.

Consider `CNC(=O)[C@@H](NC(=O)[C@H](CC(C)C)[C@H](C)C(=O)NO)c1ccccc1` [Test sample E, [4-(N-hydroxyamino)-2(R)-isobutyl-3(S)-methylsuccinyl]-L-phenylglycine-N-methylamide], for which the inhibition at 5 µM in series [1] was 29%. The “decrease of body weight caused by the induced GVHD” value in the series on GVHD induced mouse [2] (body weight measured weekly for 6 weeks) is listed as “clearly prohibited”. Besides, the “increase of total IgE amount caused by the induced GVHD” value with GVHD induced mouse [2] (total IgE measured weekly for 9 weeks) is given as “clearly prohibited”. The molecule further yielded a survival rate in the series with GVHD induced mouse [3] of 90%. Moreover, the mortality entry in series [4] is on record as “not found”.

As for `CNC(=O)[C@@H](NC(=O)[C@@H](CC(=O)NO)CC(C)C)c1ccc2ccccc2c1` [Test sample F, [4-(N-hydroxyamino)-2(R)-isobutylsuccinyl]-L-2-naphthylglycine-N-methylamide], the inhibition at 5 µM in series [1] was determined as 35%.

`NS(=O)(=O)c1ccc(CCNC(=O)[C@H](CC2CCCCC2)NC(=O)[C@H](CCCc2ccccc2)CC(=O)NO)cc1` [Test sample G, [4-(N-hydroxyamino)-2(R)-(3-phenylpropyl)succinyl]-L-3-cyclohexylalanine-N-[2-(4-sulfonylamidophenyl)ethyl]amide]: in series [1], 1.1 µM corresponded to half-maximal inhibition (IC50) and the inhibition at 5 µM was greater than 70%.

As for `CNC(=O)[C@H](Cc1cccc2c1CCCC2)NC(=O)[C@H](CC(C)C)C(C)C(=O)NO` (stereo partly drawn) [Test sample H, [4-(N-hydroxyamino)-2(R)-isobutyl-3-methylsuccinyl]-L-3-(5,6,7,8-tetrahydro-1-naphthyl)alanine-N-methylamide], in series [1], the inhibition at 5 µM worked out at 57%.

Turning to `CNC(=O)[C@H](Cc1cccc2ccccc12)NC(=O)[C@H](CC(C)C)C(C)C(=O)NO` (stereo partly drawn) [Test sample I, [4-(N-hydroxyamino)-2(R)-isobutyl-3-methylsuccinyl]-L-3-(1-naphthyl)alanine-N-methylamide], in series [1], the inhibition at 5 µM was 50%.

Source of the values: patent EP0848957A1, “Fas LIGAND SOLUBILIZATION INHIBITOR” (KANEBO LTD., priority 1995, dated 1997).
